Assay results as given in paper PMC8821551, “Binding of cationic analogues of α-MSH to lipopolysaccharide and disruption of the cytoplasmic membranes caused bactericidal action against Escherichia coli” (Scientific Reports, 2022).
Residues, ends and D or L forms follow the SMILES beside them.

Assays:
Format in all cases: cell-based, Escherichia coli
[1] = test system: E. coli cells; experiment: Membrane permeabilization assay (PI uptake, flow cytometry); settings: 1 h; for PI positive cells: at lower and higher concentrations, from 2 to 10 µM, 10^6 CFU/mL, PI 1.3 µg/mL, 37 °C, flow cytometry; for cell viability on plating the cell suspension used for the PI uptake assay, in words: same cell density and peptide concentrations as PI uptake experiment
Protocol: Membrane permeabilization of E. coli cells was determined via propidium iodide (PI) uptake assay through flow cytometry as described previously with slight modifications. Briefly, mid-log phase E. coli cells were adjusted to 10^6 CFU/mL in the HEPES-glucose buffer. Next, cells were incubated with propidium iodide (PI) at 1.3 µg/mL concentration for 30 min in the dark. After incubation, PI-loaded cells were treated with a range of peptide concentrations, i.e., 1 µM, 2 µM, 5 µM, and 10 µM, at 37 °C for 1 h, and PI fluorescence intensity was measured through Becton Dickinson (BD) FACS verse (San Jose, CA) flow cytometer using excitation at 544 nm and emission at 620 nm.
Figure S2: Histograms of E. coli cells treated with 2 µM concentration of α-MSH and its analogues and 1 µM concentration of polymyxin B for 1 h. Towards monitoring the membrane permeabilizations of E. coli cells, propidium iodide (PI) uptake assay through flow cytometry was performed using the previously standardized method with mild modifications ^2. Briefly, mid-log phase grown E. coli cells (10^6 CFU/mL) suspended in the HEPES-glucose buffer were incubated with propidium iodide (PI) at a concentration of 1.3 µg/mL for 30 min in dark. After incubation, PI loaded cells were treated with a range of peptide concentrations; 1 µM, 2 µM, 5 µM and 10 µM at 37 °C for 1 h, and PI fluorescence intensity was measured through Becton Dickinson (BD) FACS verse (San Jose, CA) flow cytometer using excitation at 544 nm and emission at 620 nm.

[2] = test system: stationary phase E. coli cells; experiment: Killing assay, stationary phase cells; settings: 10^5 CFU/mL
Protocol: (§1) For this study, a well-characterized strain of E. coli (ATCC 25922) was used. The strain was stored at − 80 °C in 15% (v/v) glycerol until sub-cultured onto LB agar plates for use.
(§2) The antibacterial activity of α-MSH and its cationic analogues was determined against both logarithmic (2–3 h) and stationary (16–18 h) phase of E. coli cells in LB medium. The bacterial suspension was pelleted, washed, and diluted in HEPES-glucose buffer (5 mM HEPES, 20 mM glucose, pH 7.4) to adjust the cell density by measuring the OD = 0.5 (10^8 CFU/mL) at 600 nm using a spectrophotometer. This suspension was used to obtain the desired inoculum sizes (10^5 CFU/mL, 10^6 CFU/mL, and 10^7 CFU/mL). The inoculums were exposed to various concentrations of peptides (1 µM, 2 µM, 5 µM, and 10 µM) and incubated at 37 °C. Untreated E. coli cells were also included as a control. At selected time points (0 min, 15 min, 30 min, 60 min, and 120 min), aliquots were taken out, and survival of E. coli cells was determined by quantitative plating on LB agar after appropriate dilution in the same buffer. The plates were incubated overnight at 37 °C, followed by colony counting. Each experiment was performed at least three times on three independent days.

[3] = test system: E. coli ATCC 25922; experiment: Transmission electron microscopy (TEM) of treated cells; settings: 100 µM peptide, 2 h, 37 °C, 10^8 CFU/mL mid-log cells
Protocol: To detect ultra-structural changes in E. coli on peptide treatment, TEM was used[16]. In brief, the mid-log E. coli cells (10^8 CFU/mL) were exposed with 100 µM concentration of all peptides independently for 2 h at 37 °C. After treatment, the cells were washed with PB buffer and fixed with 2.5% glutaraldehyde overnight at 4 °C. Next, the samples were post-fixed in 1.0% OsO4 and stained with uranyl acetate. After fixation, cells were dehydrated in a series of graded acetone and embedded in epoxy resin. Thin sections were made using a microtome (Leica EM UC6), which were transferred onto copper grids and stained with uranyl acetate followed by lead citrate. Samples were viewed via a transmission electron microscope (JEOL 2100F) to detect the ultrastructural and other morphological changes in the bacterial cells.

[4] = test system: E. coli ATCC 25922; experiment: Killing assay (killing kinetics), logarithmic phase cells; settings: for concentration at which a bactericidal effect (> 3 log reduction) was achieved: logarithmic phase E. coli cells (Fig. 1); for log reduction in cell viability: average ± SE, SEM
Protocol: as §1, §2

[5] = test system: E. coli cytoplasmic or inner membrane; experiment: Membrane depolarization assay (DiSC3(5)); settings: DiSC3(5) 0.4 µM, 0.2 mM EDTA, 10^6 CFU/mL mid-log cells, HEPES-glucose buffer; peptide 1 to 10 µM
Protocol: The membrane depolarization of E. coli cells was determined using a potentiometric fluorescent probe DiSC3(5), as described elsewhere. Briefly, mid-log phase E. coli cells were diluted to 10^6 CFU/mL in the same HEPES-glucose buffer and were incubated with DiSC3(5) and EDTA at 0.4 µM and 0.2 mM concentrations, respectively, for 1 h in the dark at 37 °C, till the maximum uptake of the probe occurred. Increasing concentrations of the studied peptides from 1 µM to 10 µM were then added to these dye-loaded cells in a quartz cuvette, and the fluorescence intensity was measured on spectrofluorimeter (Shimadzu RF-5301 PC) set as excitation at 622 nm and emission at 670 nm. The increase in fluorescence intensity accounted for the dissipation of membrane potential caused due to peptide treatment. Cells treated with 10 µM melittin were used as a positive control. Simultaneously, the dye-loaded cells were plated onto LB agar to estimate bacterial cell death.

[6] = test system: E. coli outer membrane; experiment: Outer membrane permeabilization assay (NPN uptake); settings: 10^8 CFU/mL mid-log cells, 10 μM NPN, relative to 10 µM polymyxin B = 100%
Protocol: The outer membrane permeabilization assay was done as described in the literature with slight modifications. Briefly, bacterial cells were grown to mid-log phase in LB medium, washed and diluted to 10^8 CFU/mL in HEPES-glucose buffer. Next, this bacterial suspension was treated with 10 μM NPN probe and subsequently challenged with increasing concentrations of peptides (1 µM to 20 µM). Changes in the fluorescence intensity of NPN were measured with the help of Shimadzu RF-5301 PC spectrofluorimeter (excitation at 350 nm and emission at 420 nm). Increased intensity of emission resulted from the damage to the bacterial outer membrane and was measured until no further increase in fluorescence was observed. NPN uptake was calculated using the following formula: %NPNuptake=Fobs-F0/F100-F0×100 where Fobs is the NPN fluorescence intensity after the peptide treatment, F0 is the NPN fluorescence with untreated E. coli cells, and F100 is the NPN fluorescence in the presence of 10 µM polymyxin B (a positive control).

[7] = peptide 1 μM, HEPES-glucose buffer, average of three independent days
[8] = peptide 20 μM (highest concentration)

**Q.** Which results are given for `CSCC[C@H](NC(=O)[C@H](CCCCN)NC(=O)[C@H](Cc1ccc(O)cc1)NC(=O)[C@H](CCCCN)NC(C)=O)C(=O)N[C@@H](C)C(=O)N[C@@H](Cc1c[nH]cn1)C(=O)N[C@@H](Cc1ccccc1)C(=O)N[C@@H](CCCNC(=N)N)C(=O)N[C@@H](Cc1c[nH]c2ccccc12)C(=O)NCC(=O)N[C@@H](CCCCN)C(=O)N1CCC[C@H]1C(=O)N[C@H](C(N)=O)C(C)C` [KKA-MSH] (Ac-KYKMAHFRWGKPV-NH2)?
**A.** PI positive cells [1]: more than 80%; cell viability on plating the cell suspension used for the PI uptake assay, in words [1]: significant reduction in the cell viability; log reduction in cell viability ([2]; HEPES-glucose buffer, 37 °C, peptide 10 µM, 2 h, mean ± SE, three independent days, SEM): 2.2 ± 0.2 log; killing activity against stationary phase cells, in words ([2]; peptide 10 µM, up to 2 h): could not obliterate the stationary phase cells; ultrastructural changes by TEM, in words [3]: complete collapse of the E. coli membrane; concentration at which a bactericidal effect (> 3 log reduction) was achieved [4]: 5 µM; log reduction in cell viability ([4]; logarithmic phase, 10^5 CFU/mL, HEPES-glucose buffer pH 7.4, 37 °C, peptide 1 µM, 1 h, three independent experiments): 1.8 ± 0.1 log; log reduction in cell viability ([4]; logarithmic phase, 10^5 CFU/mL, HEPES-glucose buffer pH 7.4, 37 °C, peptide 1 µM, 2 h, three independent experiments): 2.1 ± 0.1 log; log reduction in cell viability ([4]; logarithmic phase, 10^5 CFU/mL, HEPES-glucose buffer pH 7.4, 37 °C, peptide 2 µM, 1 h, three independent experiments): 2.7 ± 0.3 log; log reduction in cell viability ([4]; logarithmic phase, 10^5 CFU/mL, HEPES-glucose buffer pH 7.4, 37 °C, peptide 2 µM, 2 h, three independent experiments): 2.9 ± 0.2 log; change of killing activity at 5 µM against lower concentrations, in words ([4]; logarithmic phase, 10^5 CFU/mL, peptide 5 µM): no change in its activity; bactericidal effect (> 3 log reduction), in words ([4]; logarithmic phase, 10^5 CFU/mL, peptide 2, 5 and 10 µM, 1 h of incubation): accomplished bactericidal effect; log reduction in cell viability ([4]; logarithmic phase, 10^6 CFU/mL, peptide 10 µM, 2 h, three independent days): 3.5 ± 0.2 log; log reduction in cell viability ([4]; logarithmic phase, 10^7 CFU/mL, peptide 10 µM, 2 h, three independent days): 2.7 ± 0.02 log; lowest concentration that induced depolarization of E. coli inner membrane [5]: 2 µM; %NPN uptake [6, 7]: 12.5%; %NPN uptake [6, 8]: 55%

**Q.** How did the PI positive cells [1] turn out when `CSCC[C@H](NC(=O)[C@H](CCCCN)NC(=O)[C@H](Cc1ccc(O)cc1)NC(=O)[C@H](CCCCN)NC(C)=O)C(=O)N[C@@H](CCCCN)C(=O)N[C@@H](Cc1c[nH]cn1)C(=O)N[C@@H](Cc1ccccc1)C(=O)N[C@@H](CCCNC(=N)N)C(=O)N[C@@H](Cc1c[nH]c2ccccc12)C(=O)NCC(=O)N[C@@H](CCCCN)C(=O)N1CCC[C@H]1C(=O)N[C@H](C(N)=O)C(C)C` [KKK-MSH] (Ac-KYKMKHFRWGKPV-NH2) was run?
**A.** Its PI positive cells is “more than 80%”.

**Q.** And the “cell viability on plating the cell suspension used for the PI uptake assay, in words” value [1]?
**A.** The value was “significant reduction in the cell viability”.

**Q.** And the “incubation time to complete removal of the cells” value ([2]; peptide 1 µM)?
**A.** The value was 2 h.

**Q.** What about the “log reduction in the viability of the stationary phase cells” value ([2]; peptide 1 µM, 1 h) of the same compound?
**A.** Its value is 2.5 log.

**Q.** What about the “incubation time to eradication of the stationary phase cells” value ([2]; peptide 10 µM) of the same compound?
**A.** Its value is 30 min.

**Q.** What about the “ultrastructural changes by TEM, in words” value [3] of the same compound?
**A.** Its value is “complete collapse of the E. coli membrane”.

**Q.** And the “concentration at which a bactericidal effect (> 3 log reduction) was achieved” value [4]?
**A.** Its value is 1 µM.

**Q.** And the “incubation time to complete eradication of the cells” value ([4]; logarithmic phase, 10^5 CFU/mL, HEPES-glucose buffer, 37 °C, peptide 1 µM)?
**A.** The value was ≤ 15 min.

**Q.** And the “incubation time to complete eradication of the cells” value ([4]; logarithmic phase, 10^5 CFU/mL, HEPES-glucose buffer, 37 °C, peptide 2 µM)?
**A.** The value was ≤ 15 min.

**Q.** What about the “log reduction in cell viability (bactericidal effect)” value ([4]; logarithmic phase, 10^5 CFU, peptide 1 µM, within 15 min) of the same compound?
**A.** The value was > 3 log.

**Q.** What about the “complete eradication of the cells, in words” value ([4]; logarithmic phase, 10^6 CFU/mL, peptide 1 µM) of the same compound?
**A.** The value was “not at 1 µM concentration”.

**Q.** And the “incubation time to complete eradication of the cells” value ([4]; logarithmic phase, 10^6 CFU/mL, peptide 2 µM)?
**A.** The value was 60 min.

**Q.** And the “incubation time to complete eradication of the cells” value ([4]; logarithmic phase, 10^6 CFU/mL, peptide 5 µM)?
**A.** Its value is 30 min.

**Q.** And the “incubation time to complete eradication of the cells” value ([4]; logarithmic phase, 10^6 CFU/mL, peptide 10 µM)?
**A.** Its value is 15 min.

**Q.** What about the “incubation time to no viable cells” value ([4]; logarithmic phase, 10^7 CFU/mL, peptide 10 µM) of the same compound?
**A.** Its value is 1 h.

**Q.** And the “lowest concentration at which the bactericidal effect was maintained” value ([4]; logarithmic phase, high cell density)?
**A.** Its value is 2 µM.

**Q.** What about the “lowest concentration that induced depolarization of E. coli inner membrane” value [5] of the same compound?
**A.** The value was 2 µM.

**Q.** And the “%NPN uptake” value [6, 7]?
**A.** Its value is 30.7%.

**Q.** And the “%NPN uptake” value ([6]; peptide 2 μM)?
**A.** Its value is 34%.

**Q.** And the “%NPN uptake” value ([6]; peptide 5 μM)?
**A.** Its value is 55.6%.

**Q.** And the “%NPN uptake” value ([6]; peptide 10 μM)?
**A.** Its value is 77.6%.

**Q.** And the “%NPN uptake” value [6, 8]?
**A.** The value was 86%.
